# From patent US8912200B2, “Alkynyl substituted pyrimidinyl-pyrroles active as kinases inhibitors” (Nerviano Medical Sciences S.R.L., priority 2011, dated 2014)
# Columns and labels:
# [1] = target: T1, JAK2 kinase domain (Homo sapiens, UniProt O60674); experiment: Biochemical assay for inhibitors of JAK kinase activity (JAK2, 33P-γ-ATP/dowex resin); settings: JAK2 kinase domain 1 nM, 60 μM ATP
# T1 construct: commercially available JAK2 kinase domain; purchased Invitrogen, Eugene, Oreg
# Text: Biochemical Assay for Inhibitors of JAK Kinase Activity
# (§1) Specific JAK2, JAK1 or JAK3 peptide substrates are trans-phosphorylated by JAK kinases in the presence of ATP traced with 33P-γ-ATP. At the end of the phosphorylation reaction, the unreacted ATP, cold and radioactive, is captured by an excess of dowex ion exchange resin that eventually settles by gravity to the bottom of the reaction plate. The supernatant is subsequently withdrawn and transferred into a counting plate that is then evaluated by β-counting.
# 500 g of wet resin (SIGMA, custom prepared resin DOWEX 1×8 200-400 mesh, 2.5 Kg) are weighed out and diluted 2 to 1 in 150 mM sodium formate, pH 3.00. The resin is allowed to settle down overnight and then the supernatant is discarded. After three washes as above over a couple of days, the resin is allowed to settle and two volumes (with respect to the resin volume) of 150 mM sodium formate buffer are added.
# Kinase buffer was composed of 50 mM HEPES pH 7.5 containing 10 mM MgCl2, 2.5 mM DTT, 10 μM Na3VO4 and 0.2 mg/mL BSA.
# JAK2 Specific Assay Conditions
# The JAK2 kinase assay was run with a final enzyme concentration of 1 nM, in the presence of 60 μM ATP, 3 nM 33P-γ-ATP and 64 μM of substrate BioDBn*306 (Aminoacid sequence: LPLDKDYYVVREPGQ—SEQ ID NO: 1). The peptidic substrate was purchased from American Peptide Company (Sunnyvale, Calif.).
# (§2) For IC50 determination, test compounds are received as a 1 mM solution in 100% DMSO, distributed into 96 well plates: compounds are then plated into the first column of a microtiter plate (A1 to G1), 100 μL/well.
# (§3) An automated station for serial dilutions (Biomek FX, Beckman) is used for producing 1:3 dilutions in 100% DMSO, from line A1 to A10, and for all the compounds in the column. Moreover, 4-5 copies of daughter plates are prepared by reformatting 5 μL of this first set of 100% DMSO dilution plates into 384 deep well-plates: one of these plates with the serial dilutions of test compounds will be thawed the day of the experiments, reconstituted at a 3× concentration with water and used in the IC50 determination assays. In a standard experiment, the highest concentration (3×) of all compounds is 30 μM, while the lowest one is 1.5 nM. Each 384 well-plate will contain at least one curve of the standard inhibitor staurosporine and reference wells (total enzyme activity vs. no enzymatic activity) for the Z′ and signal to background evaluation.
# 384-well plates, V bottom (test plates) are prepared with 5 μL of the compound dilution (3×) and then placed onto a PlateTrak 12 robotized station (Perkin Elmer; the robot has one 384-tip pipetting head for starting the assay plus one 96-tip head for dispensing the resin) together with one reservoir for the Enzyme mix (3×) and one for the ATP mix (3×). At the start of the run, the robot aspirates 5 μL of ATP mix, makes an air gap inside the tips (3 μl) and aspirates 5 μL of JAK2 mix. The following dispensation into the plates plus 3 cycles of mixing, done by the robot itself, starts the kinase reaction. At this point, the correct concentrations are restored for all the reagents. The robot incubates the plates for 60 minutes at room temperature, and then stops the reaction by pipetting 60 μL of dowex resin suspension into the reaction mix. In order to avoid tip clogging, wide bore tips are used to dispense the resin suspension. Three cycles of mixing are done immediately after the addition of the resin. Another mixing cycle is performed after all the plates are stopped, this time using normal tips: the plates are then allowed to rest for about one hour in order to allow resin sedimentation. At this point, 27 μL of the supernatant are transferred into 384-Optiplates (Perkin-Elmer), with 50 μL of Microscint 40 (Perkin-Elmer); after 5 min of orbital shaking the plates are read on a Perkin-Elmer Top Count radioactivity counter. […]
# [2] = target: T2, Lyn full length (Homo sapiens, UniProt P07948); experiment: Biochemical assay for inhibitors of Lyn (Src family) kinase activity; settings: Lyn full length 1 nM, 25 μM ATP
# T2 construct: The assay has been performed using Lyn full length
# T2 sequence (P07948 whole entry): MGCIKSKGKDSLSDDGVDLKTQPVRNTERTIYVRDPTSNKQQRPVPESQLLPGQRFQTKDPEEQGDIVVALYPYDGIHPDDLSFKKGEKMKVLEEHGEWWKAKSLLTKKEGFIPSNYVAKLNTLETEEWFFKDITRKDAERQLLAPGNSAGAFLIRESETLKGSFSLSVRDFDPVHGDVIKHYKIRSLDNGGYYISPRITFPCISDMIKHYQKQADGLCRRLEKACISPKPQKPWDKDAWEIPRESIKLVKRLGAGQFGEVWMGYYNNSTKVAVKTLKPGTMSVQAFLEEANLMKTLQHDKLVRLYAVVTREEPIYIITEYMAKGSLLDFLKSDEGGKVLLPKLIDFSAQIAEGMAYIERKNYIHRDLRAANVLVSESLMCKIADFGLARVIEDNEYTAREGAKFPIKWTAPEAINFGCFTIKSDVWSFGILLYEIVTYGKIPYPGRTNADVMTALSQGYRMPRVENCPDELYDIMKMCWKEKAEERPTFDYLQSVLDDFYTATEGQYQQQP
# Text: Biochemical Assay for Inhibitors of Lck and Lyn (Src Family) Kinases Activity
# as §1, with “Lck and Lyn” for “JAK2, JAK1 or JAK3 peptide”, “Lck and Lyn” for “JAK”
# Lyn Specific Assay Conditions
# The assay has been performed using Lyn full length (accession number P07948 of UniProtKB/Swiss-Prot database).
# Kinase buffer was composed of 50 mM HEPES pH 7.5 containing 3 mM MgCl2, 1 mM DTT, 3 μM Na3VO4, and 0.2 mg/mL BSA.
# The Lyn kinase assay was run with a final enzyme concentration of 1 nM, in the presence of 25 μM ATP, 1.5 nM 33P-γ-ATP and 250 μM of substrate ABI 1 (Aminoacid sequence: EAIYAAPFAKKK—SEQ ID NO: 3). The peptidic substrate was purchased from American Peptide Company (Sunnyvale, Calif.).
# as §2, §3
# 384-well plates, V bottom (test plates) are prepared with 5 μL of the compound dilution (3×) and then placed onto a PlateTrak 12 robotized station (Perkin Elmer; the robot has one 384-tip pipetting head for starting the assay plus one 96-tip head for dispensing the resin) together with one reservoir for the Enzyme mix (3×) and one for the ATP mix (3×). At the start of the run, the robot aspirates 5 μL of ATP mix, makes an air gap inside the tips (3 μl) and aspirates 5 μL of JAK2 mix. The following dispensation into the plates plus 3 cycles of mixing, done by the robot itself, starts the kinase reaction. At this point, the correct concentrations are restored for all the reagents. The robot incubates the plates for 60 minutes at room temperature, and then stops the reaction by pipetting 60 μL of dowex resin suspension into the reaction mix. In order to avoid tip clogging, wide bore tips are used to dispense the resin suspension. Three cycles of mixing are done immediately after the addition of the resin. Another mixing cycle is performed after all the plates are stopped, this time using normal tips: the plates are then allowed to rest for about one hour in order to allow resin sedimentation. At this point, 27 μL of the supernatant are transferred into 384-Optiplates (Perkin-Elmer), with 50 μL of Microscint 40 (Perkin-Elmer); after 5 min of orbital shaking the plates are read on a Perkin-Elmer Top Count radioactivity counter.
# Data are analyzed by an internally customized version of the SW package “Assay Explorer” that provides sigmoidal fitting of the ten-dilutions curves for IC50 determination in the secondary assays/hit confirmation routines.
# [3] = test system: JAK2 dependent human megakaryoblastic leukemia cell line SET-2; experiment: Cell proliferation assay (CellTiter-Glo, 72 hours); type: cell-based; settings: Homo sapiens, SET-2 cells
# Method: The JAK2 dependent human megakaryoblastic leukemia cell line SET-2 (DSMZ, Braunschweig GERMANY) and the JAK2 independent human chronic myelogenous leukaemia cell line K562 (ECACC, Wiltshire, UK) were cultured in RPMI-1640 medium-Glutamax (Gibco BRL, Gaithesburg, Md., USA), supplemented with 10% fetal bovine serum (FBS) at 37° C. and 5% CO2.
# Cell Proliferation Assay:
# Approximately 5×10^3 cells were plated into 384 microtiter plate wells in 50 μL of growth media with different concentrations of inhibitors. The cells were incubated at 37° C. and 5% CO2 for 72 hours, then the plates were processed using CellTiter-Glo assay (Promega, Madison, Wis., USA) following the manufacturer's instruction. Briefly 25 μL/well reagent solution is added to each well and after 5 minutes shaking the micro-plates are read by Envision luminometer (PerkinElmer, Waltham, Mass., USA).
# Data are analyzed by Symix Assay Explorer software (Symix Technologies Inc.) that provides sigmoidal fitting algorithm of the 8 points dilutions curves for IC50 determination.
# T1 sequence (O60674 849-1124 limits assumed): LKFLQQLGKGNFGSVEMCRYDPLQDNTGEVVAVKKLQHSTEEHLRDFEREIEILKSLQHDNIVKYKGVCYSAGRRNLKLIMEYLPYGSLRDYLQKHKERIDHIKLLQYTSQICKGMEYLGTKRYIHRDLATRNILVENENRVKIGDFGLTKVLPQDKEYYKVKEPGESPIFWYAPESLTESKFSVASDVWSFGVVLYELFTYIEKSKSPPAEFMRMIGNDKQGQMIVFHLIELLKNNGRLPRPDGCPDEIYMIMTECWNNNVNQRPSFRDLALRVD
Structure (SMILES),IC50 [1] [nM],IC50 [2] [nM],IC50 [3] [nM]
"Cc1ccc(Cl)cc1-c1[nH]c(-c2nc(N)ncc2C#Cc2ccc(N3CCN(C)CC3)cc2)cc1C(N)=O [compound 11, 5-(2-Amino-5-{[4-(4-methylpiperazin-1-yl)phenyl]ethynyl}pyrimidin-4-yl)-2-(5-chloro-2-methylphenyl)-1H-pyrrole-3-carboxamide]",4,8,90
"Cc1ccc(Cl)cc1-c1[nH]c(-c2nc(N)ncc2C#Cc2cccc(NC3CCOCC3)c2)cc1C(N)=O [compound 13, 5-(2-Amino-5-{[3-(tetrahydro-2H-pyran-4-ylamino)phenyl]ethynyl}pyrimidin-4-yl)-2-(5-chloro-2-methylphenyl)-1H-pyrrole-3-carboxamide]",4,8,
"Cc1ccc(Cl)cc1-c1[nH]c(-c2nc(N)ncc2C#Cc2cccc(NCCO)c2)cc1C(N)=O [compound 15, 5-[2-Amino-5-({3-[(2-hydroxyethyl)amino]phenyl}ethynyl)pyrimidin-4-yl]-2-(5-chloro-2-methylphenyl)-1H-pyrrole-3-carboxamide]",2,5,240
"COc1ccc(NC2CCN(C)CC2)cc1C#Cc1cnc(N)nc1-c1cc(C(N)=O)c(-c2cc(Cl)ccc2C)[nH]1 [compound 22, 5-[2-Amino-5-({2-methoxy-5-[(1-methylpiperidin-4-yl)amino]phenyl}ethynyl)pyrimidin-4-yl]-2-(5-chloro-2-methylphenyl)-1H-pyrrole-3-carboxamide]",2,9,430
"Cc1ccc(Cl)cc1-c1[nH]c(-c2nc(N)ncc2C#Cc2cccc(CN3CCN(C)CC3)c2)cc1C(N)=O [compound 24, 5-[2-Amino-5-({3-[(4-methylpiperazin-1-yl)methyl]phenyl}ethynyl)pyrimidin-4-yl]-2-(5-chloro-2-methylphenyl)-1H-pyrrole-3-carboxamide]",2,5,330
"Cc1ccc(Cl)cc1-c1[nH]c(-c2nc(N)ncc2C#Cc2ccc(N3CCC(N4CCN(C)CC4)CC3)cc2)cc1C(N)=O [compound 25, 5-[2-Amino-5-({4-[4-(4-methylpiperazin-1-yl)piperidin-1-yl]phenyl}ethynyl)pyrimidin-4-yl]-2-(5-chloro-2-methylphenyl)-1H-pyrrole-3-carboxamide]",2,10,170

# Continued by falling IC50 [1], values first:
IC50 [1] [nM],IC50 [2] [nM],IC50 [3] [nM],Structure (SMILES)
2,6,520,"Cc1ccc(Cl)cc1-c1[nH]c(-c2nc(N)ncc2C#Cc2cccc(O)c2)cc1C(N)=O [compound 2, 5-{2-Amino-5-[(3-hydroxyphenyl)ethynyl]pyrimidin-4-yl}-2-(5-chloro-2-methylphenyl)-1H-pyrrole-3-carboxamide]"
1,1,150,"Cc1ccc(Cl)cc1-c1[nH]c(-c2nc(N)ncc2C#Cc2cccc(N)c2)cc1C(N)=O [compound 4, 5-{2-amino-5-[(3-aminophenyl)ethynyl]pyrimidin-4-yl}-2-(5-chloro-2-methylphenyl)-1H-pyrrole-3-carboxamide]"
1,3,240,"Cc1ccc(Cl)cc1-c1[nH]c(-c2nc(N)ncc2C#Cc2ccccc2N)cc1C(N)=O [compound 6, 5-{2-Amino-5-[(2-aminophenyl)ethynyl]pyrimidin-4-yl}-2-(5-chloro-2-methylphenyl)-1H-pyrrole-3-carboxamide]"
1,2,140,"Cc1ccc(Cl)cc1-c1[nH]c(-c2nc(N)ncc2C#Cc2ccc(N)cc2)cc1C(N)=O [compound 8, 5-{2-Amino-5-[(4-aminophenyl)ethynyl]pyrimidin-4-yl}-2-(5-chloro-2-methylphenyl)-1H-pyrrole-3-carboxamide]"
1,10,340,"COc1ccc(N)cc1C#Cc1cnc(N)nc1-c1cc(C(N)=O)c(-c2cc(Cl)ccc2C)[nH]1 [compound 9, 5-{2-Amino-5-[(5-amino-2-methoxyphenyl)ethynyl]pyrimidin-4-yl}-2-(5-chloro-2-methylphenyl)-1H-pyrrole-3-carboxamide]"
1,1,580,"Cc1ccc(Cl)cc1-c1[nH]c(-c2nc(N)ncc2C#Cc2cccc(C(=O)N3CCN(C)CC3)c2)cc1C(N)=O [compound 27, 5-[2-Amino-5-({3-[(4-methylpiperazin-1-yl)carbonyl]phenyl}ethynyl)pyrimidin-4-yl]-2-(5-chloro-2-methylphenyl)-1H-pyrrole-3-carboxamide]"
1,1,330,"Cc1ccc(Cl)cc1-c1[nH]c(-c2nc(N)ncc2C#Cc2ccc(N3CCC(O)CC3)cc2)cc1C(N)=O [compound 28, 5-(2-Amino-5-{[4-(4-hydroxypiperidin-1-yl)phenyl]ethynyl}pyrimidin-4-yl)-2-(5-chloro-2-methylphenyl)-1H-pyrrole-3-carboxamide]"
